# Measurements published in publication PMC6268831 (Molecules, 2012).
# Experiments:
# rat thymocytes [1] = test: Cell viability of rat thymocytes by CCK-8 assay; assay type: cell-based; conditions: 24 h, absorbance ratio to control cells, mean ± SD
# Method: (§1) Experiments were performed on adult male Wistar rats (150−180 g), 8−10 weeks old, bred at the Vivarium of the Institute of Biomedical Research, Medical Faculty, Nis, Serbia, under conventional laboratory conditions and in accordance with national animal protection guidelines.
# (§2) Rat thymocytes were isolated as described previously. The viability of the isolated cells, as determined by trypan blue dye exclusion test, was always over 95%. Isolated thymocytes were counted and adjusted to a density of 5 × 10^6 cells/mL of CM.
# (§3) Isolated thymocytes were cultivated in 96-well round-bottom plates (NUNC, Aarhus, Denmark), containing a 100 µL of cell suspension (5 × 10^5 cells) in each well. […] Control samples were cultured in CM, with appropriate amounts of 96% ethanol (9.6%). Concentrations of tested substances used in our study were adopted from our previous report, regarding the effect of different compounds on thymocytes toxicity. All cell cultures were done in triplicates and cultivated for 24 h in an incubator (Galaxy, Wolf Laboratories, Pocklington, UK) with 5% CO2 at 37 °C.
# Cell viability of rat thymocytes, after cultivation period, was evaluated by CCK-8 assay as was previously described. Ten µL of reaction mixture was added in each well. After 2 h of incubation, the solubilized formazan product was quantified spectrophotometrically, by using a microplate reader Perkin-Elmer (Wallac Victor^2V, Turku, Finland). Absorbance was measured at 450 nm. For each sample, basal intensity values were subtracted from those obtained after different treatments. Absorbances were presented as ratio for comparison with control samples.
# rat thymocytes [2] = test: Intracellular ROS production in rat thymocytes (H2DCF-DA probe); assay type: cell-based; conditions: 24 h, ratio of mean fluorescence intensity to control, mean ± SD
# Method: as §1, §2, §3
# A redox-sensitive probe (H2DCF-DA) was used to determine changes in overall cellular ROS levels, as described previously. The change in fluorescence (excitation 485 nm; emission 530 nm) was measured using a Perkin-Elmer fluorimeter (Wallac Victor^2V). For each sample, basal fluorescence intensity values were subtracted from those obtained after different treatments and results were presented as ratio of mean fluorescence intensity (MFI).
# rat thymocytes [3] = test: Mitochondrial membrane potential of rat thymocytes (Rhodamine 123 uptake); assay type: cell-based; conditions: 24 h, ratio of mean fluorescence intensity to control, mean ± SD
# Method: Experiments were performed on adult male Wistar rats (150−180 g), 8−10 weeks old, bred at the Vivarium of the Institute of Biomedical Research, Medical Faculty, Nis, Serbia, under conventional laboratory conditions and in accordance with national animal protection guidelines. Rat thymocytes were isolated as described previously. The viability of the isolated cells, as determined by trypan blue dye exclusion test, was always over 95%. Isolated thymocytes were counted and adjusted to a density of 5 × 10^6 cells/mL of CM. […] Control samples were cultured in CM, with appropriate amounts of 96% ethanol (9.6%). Concentrations of tested substances used in our study were adopted from our previous report, regarding the effect of different compounds on thymocytes toxicity. All cell cultures were done in triplicates and cultivated for 24 h in an incubator (Galaxy, Wolf Laboratories, Pocklington, UK) with 5% CO2 at 37 °C. […] The fluorescence of intracellular Rhodamine 123 (excitation 485 nm; emission 530 nm) was measured by Perkin-Elmer fluorimeter, as published earlier. For each sample, basal fluorescence intensity values were subtracted from those obtained after different treatments and results were presented as ratio of mean fluorescence intensity (MFI).
# [4] = system: human acute monocytic leukemia cell line (THP-1); conditions: tested as essential oil, lower concentrations than in this study, trypan blue viability assay; cited from earlier work
Compound,Cytotoxicity (CCK-8 assay) (rat thymocytes [1]; 0.5 µg/mL),Cytotoxicity (CCK-8 assay) (rat thymocytes [1]; 5 µg/mL),Cytotoxicity (CCK-8 assay) (rat thymocytes [1]; 50 µg/mL),Intracellular ROS production (rat thymocytes [2]; 0.5 µg/mL),Intracellular ROS production (rat thymocytes [2]; 5 µg/mL),Intracellular ROS production (rat thymocytes [2]; 50 µg/mL),Mitochondrial membrane potential (rat thymocytes [3]; 0.5 µg/mL),Mitochondrial membrane potential (rat thymocytes [3]; 5 µg/mL),Mitochondrial membrane potential (rat thymocytes [3]; 50 µg/mL),Toxic effect on THP-1 cells [4]
"CC1(C)C2CCC1(C)C(O)C2 (stereo not shown) [Borneol, 4,7,7-trimethylbicyclo[2.2.1]heptan-3-ol]",1.067 ± 0.004,1.070 ± 0.015,0.975 ± 0.144,1.268 ± 0.102,1.224 ± 0.108,1.164 ± 0.191,0.799 ± 0.022,0.856 ± 0.084,0.876 ± 0.110,
"CC12CCC(CC1=O)C2(C)C (stereo not shown) [Camphor, 4,7,7-trimethylbicyclo[2.2.1]heptan-3-one]",0.927 ± 0.132,1.024 ± 0.083,1.111 ± 0.033,1.413 ± 0.068,1.399 ± 0.093,1.251 ± 0.049,0.740 ± 0.071,0.919 ± 0.047,0.925 ± 0.132,no significant toxic effect
